What is called Ki is a measure of affinity in units of concentration, obtained from inhibition or displacement. A higher Ki goes with lower affinity. The IC50 is the midpoint of a concentration-inhibition curve. Read a high IC50 as a need for much substance.

The source of these data is ChEMBL document CHEMBL1135977, “Comparison of 3D structures and AT(1) binding properties of pyrazolidine-3,5-diones and tetrahydropyridazine-3,6-diones with parent antihypertensive drug irbesartan” (J Med Chem, 2002).

In assay [1] the target is T1, Type-1 angiotensin II receptor (Homo sapiens, UniProt P30556).
T1 sequence (P30556 whole entry): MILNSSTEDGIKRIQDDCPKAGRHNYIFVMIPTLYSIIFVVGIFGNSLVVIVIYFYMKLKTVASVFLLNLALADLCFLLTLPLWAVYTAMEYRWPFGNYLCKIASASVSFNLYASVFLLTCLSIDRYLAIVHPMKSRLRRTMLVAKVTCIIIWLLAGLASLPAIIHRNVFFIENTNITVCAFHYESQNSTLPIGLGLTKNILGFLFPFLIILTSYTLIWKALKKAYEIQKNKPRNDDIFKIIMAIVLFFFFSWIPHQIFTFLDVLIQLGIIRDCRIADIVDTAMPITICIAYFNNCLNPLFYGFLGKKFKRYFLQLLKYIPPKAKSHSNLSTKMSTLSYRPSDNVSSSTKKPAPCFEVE
In words: In vitro binding affinity towards Angiotensin II receptor, type 1 of human hepatoma cell line PLC-PRF-5.

Assay [2] in a line: Inhibition of AII(50 nM) induced intracellular [Ca2+] increase in PLC-PRF cells. The conditions noted are these: Homo sapiens. The class given is functional, cell-based.

The structures appear in SMILES notation.

Regarding `CCCCN1C(=O)C2(CCCC2)CC(=O)N1Cc1ccc(-c2ccccc2-c2nnn[nH]2)cc1`, affinity in assay [1] was put at a Ki of 80 nM. Moreover, the midpoint of inhibition in assay [2], the IC50, lay at 102 nM.
With `CCCCN1C(=O)C2(CCCC2)C(=O)N1Cc1ccc(-c2ccccc2-c2nn[nH]n2)cc1`, the IC50 in assay [2] turned out to be 28 nM.
In the case of `CCCCN1C(=O)CC2(CCCC2)C(=O)N1Cc1ccc(-c2ccccc2-c2nn[nH]n2)cc1`, in assay [1], the Ki stood at 14 nM. Further, the midpoint of inhibition in assay [2], the IC50, lay at 9 nM.
The molecule `CCCCC1=NC2(CCCC2)C(=O)N1Cc1ccc(-c2ccccc2-c2nnn[nH]2)cc1` [IRBESARTAN] returned an IC50 in assay [2] of 4 nM.
